# Measurements as given in patent US12077503B2, “Substituted cyclic amides and their use as herbicides” (FMC CORPORATION, priority 2015, dated 2024).
# Where two headings read alike, the source gives them in different places.
# Legend:
# Assay type in all cases: in vivo
# [1] = tested on: pigweed (Amaranthus retroflexus); assay: Test A postemergence; conditions: Amaranthus retroflexus, post-emergence, 240 h; for pest or weed control at 125 g/ha: 125 g ai/ha, visual injury vs untreated controls after approx. 10 d, 0 = no effect, 100 = complete control, read-out: Pigweed plant response rating (0 to 100 scale); for pest or weed control at 500 g/ha: 500 g ai/ha
# Procedure, shortened: (§1)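 Seeds sprayed preemergence with a directed soil spray, or plants at 2 to 10 cm height and one- to two-leaf stage sprayed postemergence, with test chemicals in a non-phytotoxic solvent mixture containing surfactant, in loam soil–sand blend. Injury rated visually against untreated controls after about 10 d in greenhouse, 0 (no effect) to 100 (complete control).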
# [2] = tested on: ryegrass, Italian (Italian ryegrass, Lolium multiflorum); assay: Test A postemergence; conditions: Lolium multiflorum, post-emergence, 240 h; for pest or weed control at 125 g/ha: 125 g ai/ha, visual injury vs untreated controls after approx. 10 d, 0 = no effect, 100 = complete control, read-out: Ryegrass, Italian plant response rating (0 to 100 scale); for pest or weed control at 500 g/ha: 500 g ai/ha
# Procedure, shortened: as §1
# [3] = tested on: giant foxtail (Setaria faberii); assay: Test A postemergence; conditions: Setaria faberi, post-emergence, 240 h; for pest or weed control at 125 g/ha: 125 g ai/ha, visual injury vs untreated controls after approx. 10 d, 0 = no effect, 100 = complete control, read-out: Foxtail, Giant plant response rating (0 to 100 scale); for pest or weed control at 500 g/ha: 500 g ai/ha
# Procedure, shortened: as §1
# [4] = tested on: Galium (catchweed bedstraw, Galium aparine); assay: Test A postemergence; conditions: Galium, post-emergence, 240 h; for pest or weed control at 125 g/ha: 125 g ai/ha, visual injury vs untreated controls after approx. 10 d, 0 = no effect, 100 = complete control, read-out: Galium plant response rating (0 to 100 scale); for pest or weed control at 500 g/ha: 500 g ai/ha
# Procedure, shortened: as §1
# [5] = tested on: wheat (Triticum aestivum); assay: Test A postemergence; conditions: Triticum aestivum, post-emergence, 240 h; for plant injury at 125 g/ha: 125 g ai/ha, postemergence, visual injury vs untreated controls after approx. 10 d, 0 = no effect, 100 = complete control, read-out: Wheat plant response rating (0 to 100 scale)
# Procedure, shortened: as §1
# [6] = tested on: Kochia (Kochia scoparia); assay: Test A postemergence; conditions: Bassia scoparia, post-emergence, 240 h; for pest or weed control at 125 g/ha: 125 g ai/ha, visual injury vs untreated controls after approx. 10 d, 0 = no effect, 100 = complete control, read-out: Kochia plant response rating (0 to 100 scale); for pest or weed control at 500 g/ha: 500 g ai/ha
# Procedure, shortened: as §1
# [7] = tested on: barnyardgrass (Echinochloa crus-galli); assay: Test A postemergence; conditions: Echinochloa crus-galli, post-emergence, 240 h; for pest or weed control at 125 g/ha: 125 g ai/ha, visual injury vs untreated controls after approx. 10 d, 0 = no effect, 100 = complete control, read-out: Barnyardgrass plant response rating (0 to 100 scale); for pest or weed control at 500 g/ha: 500 g ai/ha
# Procedure, shortened: as §1
# [8] = tested on: ragweed (common ragweed, Ambrosia elatior); assay: Test A postemergence; conditions: Ambrosia artemisiifolia, post-emergence, 240 h; for pest or weed control at 125 g/ha: 125 g ai/ha, visual injury vs untreated controls after approx. 10 d, 0 = no effect, 100 = complete control, read-out: Ragweed plant response rating (0 to 100 scale); for pest or weed control at 500 g/ha: 500 g ai/ha
# Procedure, shortened: as §1
# [9] = tested on: corn (Zea mays); assay: Test A postemergence; conditions: Zea mays, post-emergence, 240 h; for plant injury at 125 g/ha: 125 g ai/ha, visual injury vs untreated controls after approx. 10 d, 0 = no effect, 100 = complete control, read-out: Corn plant response rating (0 to 100 scale)
# Procedure, shortened: as §1
# [10] = tested on: blackgrass (Alopecurus myosuroides); assay: Test A postemergence; conditions: Alopecurus myosuroides, post-emergence, 240 h; for pest or weed control at 125 g/ha: 125 g ai/ha, visual injury vs untreated controls after approx. 10 d, 0 = no effect, 100 = complete control, read-out: Blackgrass plant response rating (0 to 100 scale); for pest or weed control at 500 g/ha: 500 g ai/ha
# Procedure, shortened: as §1
# [11] = tested on: rice (Oryra sativa); assay: Test B flooded paddy test; conditions: Oryza sativa, 250 g ai/ha, Flood; 0 to 100 scale where 0 is no effect and 100 is complete control; read-out: Rice plant response rating
# Procedure, shortened: (§2)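 Greenhouse paddy pots with 2-leaf stage plants received compound by direct addition to floodwater 3 cm deep, kept at that level. Scored visually at 13–15 d versus controls (0 no effect; 100 complete control).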
# [12] = tested on: sedge, umbrella (small-flower umbrella sedge, Cyperus difformis); assay: Test B flooded paddy test; conditions: Cyperus difformis, 250 g ai/ha, Flood; 0 to 100 scale where 0 is no effect and 100 is complete control; read-out: Sedge, Umbrella plant response rating
# Procedure, shortened: as §2
# [13] = tested on: ducksalad (Heteranthera limosa); assay: Test B flooded paddy test; conditions: Heteranthera limosa, 250 g ai/ha, Flood; 0 to 100 scale where 0 is no effect and 100 is complete control; read-out: Ducksalad plant response rating
# Procedure, shortened: as §2
# [14] = tested on: barnyardgrass (Echinochloa crus-galli); assay: Test B flooded paddy test; conditions: Echinochloa crus-galli, 250 g ai/ha, Flood; 0 to 100 scale where 0 is no effect and 100 is complete control; read-out: Barnyardgrass plant response rating
# Procedure, shortened: as §2
Compound,pest or weed control at 125 g/ha ([1]; postemergence),pest or weed control at 125 g/ha ([2]; postemergence),pest or weed control at 125 g/ha ([3]; postemergence),pest or weed control at 125 g/ha ([4]; postemergence),plant injury at 125 g/ha [5],pest or weed control at 125 g/ha ([6]; postemergence),pest or weed control at 125 g/ha ([7]; postemergence),pest or weed control at 125 g/ha ([8]; postemergence),plant injury at 125 g/ha ([9]; postemergence),pest or weed control at 125 g/ha ([10]; postemergence),pest or weed control at 250 g/ha [11],pest or weed control at 250 g/ha [12],pest or weed control at 250 g/ha [13],pest or weed control at 250 g/ha [14],also measured
O=C1NC[C@H](c2ccc(C(F)(F)F)cc2)C1C(=O)Nc1ccccc1CO (some centres unmarked) [Compound 1242],0%,0%,20%,0%,0%,0%,20%,0%,0%,0%,0%,0%,75%,0%,"pest or weed control at 500 g/ha ([1]; postemergence, 0 to 100 scale, 0 is no effect, 100 is complete control, read-out: Pigweed plant response rating): 0%; pest or weed control at 500 g/ha ([2]; postemergence, 0 to 100 scale, 0 is no effect, 100 is complete control, read-out: Ryegrass, Italian plant response rating): 0%; pest or weed control at 500 g/ha ([3]; postemergence, 0 to 100 scale, 0 is no effect, 100 is complete control, read-out: Foxtail, Giant plant response rating): 50%; pest or weed control at 500 g/ha ([4]; postemergence, 0 to 100 scale, 0 is no effect, 100 is complete control, read-out: Galium plant response rating): 20%; pest or weed control at 500 g/ha ([6]; postemergence, 0 to 100 scale, 0 is no effect, 100 is complete control, read-out: Kochia plant response rating): 0%; pest or weed control at 500 g/ha ([7]; postemergence, 0 to 100 scale, 0 is no effect, 100 is complete control, read-out: Barnyardgrass plant response rating): 40%; pest or weed control at 500 g/ha ([8]; postemergence, 0 to 100 scale, 0 is no effect, 100 is complete control, read-out: Ragweed plant response rating): 0%; plant injury at 500 g/ha ([9]; 500 g ai/ha, postemergence, 0 to 100 scale, 0 is no effect, 100 is complete control, read-out: Corn plant response rating): 0%; pest or weed control at 500 g/ha ([10]; postemergence, 0 to 100 scale, 0 is no effect, 100 is complete control, read-out: Blackgrass plant response rating): 0%"
CSc1ccccc1NC(=O)[C@H]1C(=O)N(C)C[C@@H]1c1cccc(C(F)(F)F)c1 [Compound 1249],30%,30%,80%,50%,50%,40%,100%,0%,70%,40%,0%,0%,100%,60%,"pest or weed control at 500 g/ha ([1]; Postemergence, visual injury, 0 to 100 scale (0 no effect, 100 complete control), approx. 10 d, read-out: Plant response rating, Pigweed): 80%; pest or weed control at 500 g/ha ([2]; Postemergence, visual injury, 0 to 100 scale (0 no effect, 100 complete control), approx. 10 d, read-out: Plant response rating, Ryegrass, Italian): 70%; pest or weed control at 500 g/ha ([3]; Postemergence, visual injury, 0 to 100 scale (0 no effect, 100 complete control), approx. 10 d, read-out: Plant response rating, Foxtail, Giant): 80%; pest or weed control at 500 g/ha ([4]; Postemergence, visual injury, 0 to 100 scale (0 no effect, 100 complete control), approx. 10 d, read-out: Plant response rating, Galium): 50%; plant injury at 500 g/ha ([5]; Postemergence, 500 g ai/ha, visual injury, 0 to 100 scale (0 no effect, 100 complete control), approx. 10 d, read-out: Plant response rating, Wheat): 70%; pest or weed control at 500 g/ha ([6]; Postemergence, visual injury, 0 to 100 scale (0 no effect, 100 complete control), approx. 10 d, read-out: Plant response rating, Kochia): 70%; pest or weed control at 500 g/ha ([7]; Postemergence, visual injury, 0 to 100 scale (0 no effect, 100 complete control), approx. 10 d, read-out: Plant response rating, Barnyardgrass): 100%; pest or weed control at 500 g/ha ([8]; Postemergence, visual injury, 0 to 100 scale (0 no effect, 100 complete control), approx. 10 d, read-out: Plant response rating, Ragweed): 60%; Corn plant response rating (crop injury, 0 = no effect, 100 = complete kill) at 500 g/ha ([9]; Postemergence, 500 g ai/ha, visual injury, 0 to 100 scale (0 no effect, 100 complete control), approx. 10 d): 90%; pest or weed control at 500 g/ha ([10]; Postemergence, visual injury, 0 to 100 scale (0 no effect, 100 complete control), approx. 10 d, read-out: Plant response rating, Blackgrass): 50%"
